This is an account of results in patent US4097482A, “5-O-Cyanobenzyl-4,5,6,7-tetrahydro-thieno[3,2-c]pyridine maleate” (Centre d'Etudes Pour L'Industrie Pharmaceutique, priority 1975, dated 1978).

A short description of series [1]: Toxicological investigation: acute toxicity LD50 in mice, intravenous route. Conditions: mouse, in vivo, per kg body weight.
For series [2], the system named is ovalbumin-induced systemic edema. The series is described as follows: Anti-inflammatory action: ovalbumin-induced systemic edema method. In kind it is in vivo. As to conditions: rats, 100 mg orally 1 hr prior to and with ovalbumin, vs control group. As to the method: (b) Ovalbumin-induced systemic edema method Rats are administered a simultaneous intraperitoneal injection of 1 ml ovalbumin and 0.5 ml of a 1°/.Salinity. aqueous Evans Blue solution. The animals of the treated group are additionally administered orally 100 mg of the test derivative, 1 hr prior to and simultaneously with ovalbumin administration. The intensity of the phenomenon thus induced is scored according to a scale from 1 to 5, according to the progress of the inflammatory syndrome. Thus are determined the mean intensity of the edema and the percent decrease of the edema reaction with respect to the control group.

The subject of series [3] is carrageenin-induced edema. The series is described as follows: Anti-inflammatory action: localised carrageenin-induced edema method. In kind it is in vivo. As to conditions: rats, 100 mg/kg orally 1 h before, with, 1 h and 2.5 hrs after carrageenin. How it is done: (a) Localised carrageenin-induced edema method: A 1% carrageenin solution (0.1 ml) is injected in the metatarsal flexor muscles of the right hind limb of rats at time 0. The animals of the treated group are additionally administered orally 100 mg/kg of the test derivative, respectively one hour prior to and then simultaneously with the injection of the phlogogenic agent, and then 1 hour and 2.5 hrs thereafter. The percent anti-inflammatory activity with reference to the reference group, as a function of time, is determined by measurements effected with a Roch micrometer at times 0, 1 hour, 2 hours, 3 hours and 5 hours after carrageenin administration. The results obtained with derivatives nos.
(In general: Carrageenan injected into the paw causes an acute inflammation.)

Structures are written as SMILES.

On to `Cl.Clc1ccccc1C=CCN1CCc2sccc2C1` [Derivative no. 6, 5-(3-o-chlorophenyl-2-propenyl)-4,5,6,7-tetrahydro-thieno[3,2-c]pyridine hydrochloride], for which the median lethal dose (LD50) at 24 h in series [1] turned out to be 60 mg/kg.

`O=C(O)c1ccccc1CN1CCc2sccc2C1` [Derivative no. 2, 5-o-Carboxybenzyl-4,5,6,7-tetrahydro-thieno[3,2-c]pyridine] returned an LD50 at 24 h in series [1] of 300 mg/kg.

With `OC(CN1CCc2sccc2C1)c1cccs1` (stereo not drawn) [Derivative no. 5, 5-[2-hydroxy-2-(2-thienyl)-ethyl]-4,5,6,7-tetrahydro-thieno[3,2-c]pyridinefumarate], in series [2], the “Percent decrease (of the edema reaction) after 2 hours” value (“Percent decrease … after 2 hours” below) was found to be 50% and the “Percent decrease (of the edema reaction) after 3 hours” value (from here on “Percent decrease … after 3 hours”) is on record as 61%. In series [3], the “Percent anti-inflammatory activity after 1 hour” value was 45%, the “Percent anti-inflammatory activity after 2 hours” value was found to be 53% and the “Percent anti-inflammatory activity after 5 hours” value is recorded as 59%. The compound also had an LD50 at 24 h in series [1] of 75 mg/kg.

Regarding `COC(=O)c1ccccc1CN1CCc2sccc2C1` [Derivative no. 1, 5-o-Methoxycarbonylbenzyl-4,5,6,7-tetrahydro-thieno[3,2-c]pyridine], in series [2], the “Percent decrease … after 2 hours” value came to 51% and the “Percent decrease … after 3 hours” value amounted to 58%. Besides, in series [3], the “Percent anti-inflammatory activity after 1 hour” value is recorded as 43%, the “Percent anti-inflammatory activity after 2 hours” value came out at 50% and the “Percent anti-inflammatory activity after 5 hours” value is recorded as 55%. In addition, in series [1], the LD50 at 24 h turned out to be 92 mg/kg.

On to `Cl.Clc1ccc(CN2CCc3sccc3C2)s1` [Derivative no. 4, 5-[(5-Chloro-2-thienyl)-methyl]-4,5,6,7-tetrahydro-thieno[3,2-c]pyridine hydrochloride], for which, in series [2], the “Percent decrease … after 2 hours” value was found to be 48% and the “Percent decrease … after 3 hours” value stood at 53%. In series [3], the “Percent anti-inflammatory activity after 1 hour” value stood at 39%, the “Percent anti-inflammatory activity after 2 hours” value is reported as 47% and the “Percent anti-inflammatory activity after 5 hours” value was determined as 54%. The median lethal dose (LD50) at 24 h in series [1] stood at 165 mg/kg.

As for `Cl.c1cc2c(s1)CCN(Cc1ccc3c(c1)OCO3)C2` [Derivative no. 8, 5-(3,4-methylenedioxy-benzyl)-4,5,6,7-tetrahydro-thieno[3,2-c]pyridine hydrochloride], in series [2], the “Percent decrease … after 2 hours” value worked out at 54% and the “Percent decrease … after 3 hours” value was 64%. Moreover, in series [3], the “Percent anti-inflammatory activity after 1 hour” value was determined as 41%, the “Percent anti-inflammatory activity after 2 hours” value was determined as 51% and the “Percent anti-inflammatory activity after 5 hours” value turned out to be 59%. This compound also showed an LD50 at 24 h in series [1] of 65 mg/kg.

Consider `N#Cc1ccccc1CN1CCc2sccc2C1.O=C(O)/C=C\C(=O)O` [Derivative no. 7, 5-o-cyanobenzyl-4,5,6,7-tetrahydrothieno[3,2-c]pyridine maleate], for which the LD50 at 24 h in series [1] came out at 45 mg/kg.

Regarding `OCc1ccccc1CN1CCc2sccc2C1` [Derivative no. 10, 5-o-hydroxy-methylbenzyl-4,5,6,7-tetrahydrothieno[3,2-c]pyridine], in series [2], the “Percent decrease … after 2 hours” value is 51% and the “Percent decrease … after 3 hours” value was determined as 62%. In series [3], the “Percent anti-inflammatory activity after 1 hour” value was determined as 36%, the “Percent anti-inflammatory activity after 2 hours” value is listed as 48% and the “Percent anti-inflammatory activity after 5 hours” value is 56%.

Take `COC(=O)c1ccccc1CN1Cc2ccsc2CC1C` (stereo not drawn) [Derivative no. 3, 5-o-Methoxycarbonylbenzyl-6-methyl-4,5,6,7-tetrahydrothieno[3,2-c]pyridine]: the LD50 at 24 h in series [1] turned out to be 65 mg/kg.

For orientation: LD50 means the dose at which mortality reaches 50%. A lower LD50 goes with a more toxic substance.
